As usually defined, the IC50 is the point on the concentration scale where inhibition reaches its midpoint. Low values mean inhibition by little substance, high ones a need for much substance.

For the test, the target named is human ACC2 (Homo sapiens (Human), UniProt O00763). Kind of test: ACC2 assay (spectrophotometric 384 well assay, NADH-linked kinetic method). The following applies: hACC2 construct lacking 128 N-terminal amino acids; coupled lactate dehydrogenase/pyruvate kinase reaction, 340 nm, 25° C. Format: biochemical. The gist of the method: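 Baculovirus/insect-cell human ACC2, anion-exchange purified; ADP formation coupled to pyruvate kinase/lactate dehydrogenase, NADH loss followed at 340 nm, 25° C, 15 min. Final 200 μM NADH and acetyl-CoA, 500 uM ATP; vehicle and no-acetyl-CoA wells set 100% and 0%.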
Sequence of human ACC2 (O00763 129-2458): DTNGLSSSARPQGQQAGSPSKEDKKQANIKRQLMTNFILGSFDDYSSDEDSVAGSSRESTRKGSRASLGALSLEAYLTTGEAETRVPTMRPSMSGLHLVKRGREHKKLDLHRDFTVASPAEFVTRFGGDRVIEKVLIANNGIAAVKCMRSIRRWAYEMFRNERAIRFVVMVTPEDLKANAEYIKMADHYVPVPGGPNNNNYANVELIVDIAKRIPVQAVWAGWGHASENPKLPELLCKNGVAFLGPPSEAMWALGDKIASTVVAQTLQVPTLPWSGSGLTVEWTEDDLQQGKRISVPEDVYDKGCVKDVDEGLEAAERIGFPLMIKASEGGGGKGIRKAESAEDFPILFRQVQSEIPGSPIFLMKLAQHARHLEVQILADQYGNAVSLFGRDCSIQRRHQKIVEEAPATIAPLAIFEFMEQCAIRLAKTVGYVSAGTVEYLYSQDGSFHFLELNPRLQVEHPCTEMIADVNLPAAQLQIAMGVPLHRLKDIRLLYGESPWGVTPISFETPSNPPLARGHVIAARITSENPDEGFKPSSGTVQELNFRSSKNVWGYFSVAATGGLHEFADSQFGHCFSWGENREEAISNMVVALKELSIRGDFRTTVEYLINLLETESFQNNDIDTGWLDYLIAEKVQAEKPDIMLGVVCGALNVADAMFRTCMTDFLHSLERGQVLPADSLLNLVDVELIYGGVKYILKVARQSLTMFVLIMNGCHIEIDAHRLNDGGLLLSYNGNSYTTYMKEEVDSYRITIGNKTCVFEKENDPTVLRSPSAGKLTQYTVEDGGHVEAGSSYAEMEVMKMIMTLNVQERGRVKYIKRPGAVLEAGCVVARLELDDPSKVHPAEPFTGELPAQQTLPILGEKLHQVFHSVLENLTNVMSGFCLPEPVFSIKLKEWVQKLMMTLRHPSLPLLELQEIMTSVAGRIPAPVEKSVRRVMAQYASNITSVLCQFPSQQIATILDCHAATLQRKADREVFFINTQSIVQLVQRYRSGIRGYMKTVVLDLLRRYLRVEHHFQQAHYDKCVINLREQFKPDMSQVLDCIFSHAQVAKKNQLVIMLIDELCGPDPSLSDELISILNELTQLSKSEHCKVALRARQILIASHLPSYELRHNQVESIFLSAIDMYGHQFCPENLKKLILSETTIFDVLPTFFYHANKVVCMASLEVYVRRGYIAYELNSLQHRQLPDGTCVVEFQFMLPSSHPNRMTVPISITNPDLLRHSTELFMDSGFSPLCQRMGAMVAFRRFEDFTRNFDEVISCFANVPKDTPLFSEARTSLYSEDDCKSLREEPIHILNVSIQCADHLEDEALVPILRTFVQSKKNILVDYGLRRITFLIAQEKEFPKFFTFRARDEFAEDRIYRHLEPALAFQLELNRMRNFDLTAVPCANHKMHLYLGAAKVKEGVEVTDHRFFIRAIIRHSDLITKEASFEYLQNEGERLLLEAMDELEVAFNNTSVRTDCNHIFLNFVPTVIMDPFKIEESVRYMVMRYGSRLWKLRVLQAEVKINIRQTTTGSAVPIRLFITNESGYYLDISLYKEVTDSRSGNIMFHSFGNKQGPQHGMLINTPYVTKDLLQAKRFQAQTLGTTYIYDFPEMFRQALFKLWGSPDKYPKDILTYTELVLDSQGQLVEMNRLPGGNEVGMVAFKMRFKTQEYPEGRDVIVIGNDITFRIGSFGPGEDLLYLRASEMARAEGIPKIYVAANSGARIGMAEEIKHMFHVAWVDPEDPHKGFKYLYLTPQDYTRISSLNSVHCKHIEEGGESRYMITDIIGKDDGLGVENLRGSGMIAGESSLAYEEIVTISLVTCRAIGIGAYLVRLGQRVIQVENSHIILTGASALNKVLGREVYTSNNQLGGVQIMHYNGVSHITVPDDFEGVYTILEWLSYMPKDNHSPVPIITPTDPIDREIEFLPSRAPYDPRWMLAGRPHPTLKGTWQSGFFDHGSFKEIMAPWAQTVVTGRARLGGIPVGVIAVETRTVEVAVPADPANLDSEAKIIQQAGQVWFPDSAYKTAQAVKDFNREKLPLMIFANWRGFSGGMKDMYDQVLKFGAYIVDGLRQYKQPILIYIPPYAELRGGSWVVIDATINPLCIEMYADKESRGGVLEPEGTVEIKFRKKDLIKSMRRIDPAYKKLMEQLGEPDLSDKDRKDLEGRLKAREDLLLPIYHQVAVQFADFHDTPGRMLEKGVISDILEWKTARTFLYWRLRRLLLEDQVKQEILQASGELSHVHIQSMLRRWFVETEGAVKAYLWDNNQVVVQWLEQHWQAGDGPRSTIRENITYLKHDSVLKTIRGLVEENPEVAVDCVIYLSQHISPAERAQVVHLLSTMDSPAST
As to `CC(=O)N[C@@H](C)c1ccc(O[C@@H]2CCN(c3ncc(OCCC4CC4)cn3)C2)cc1` [Example 6.19], the midpoint of inhibition, the IC50, lay at 449 nM.
The figure for `CC(=O)N[C@@H](C)c1ccc(O[C@@H]2CCN(c3ncnc(N4CC5COCC5C4)c3F)C2)cc1` (stereo partly shown) [Example 8.172] is 675 nM.
The figure for `COCCN(CC(F)F)c1nccc(N2CC[C@@H](Oc3ccc([C@H](C)NC(C)=O)cc3)C2)n1` [Example 8.83] is 165 nM.
Next, `CC(=O)N[C@@H](C)c1ccc(O[C@@H]2CCN(c3ncnc(N4CC[C@](C)(O)C4)c3F)C2)cc1` [Example 8.291]: 111 nM; `CC(=O)N[C@@H](C)c1ccc(O[C@@H]2CCN(c3ncnc(OCC4CC4)c3Cl)C2)cc1` [Example 7.20]: 35 nM.
On to `CC(=O)N[C@@H](C)c1ccc(O[C@@H]2CCN(c3ncnc(NC4CCCC4)c3Cl)C2)cc1` [Example 8.308], for which it took 105 nM to reach half-maximal inhibition (IC50).
The figure for `CC(=O)N[C@@H](C)c1ccc(O[C@@H]2CCN(c3ccnc(N4CC(C)(C)C4)n3)C2)cc1` [Example 8.73] is 1040 nM; for `CC(=O)N[C@@H](C)c1ccc(O[C@@H]2CCN(c3ncnc(N4CC(F)(F)C(F)(F)C4)c3F)C2)cc1` [Example 8.231] it is 127 nM; for `CC(=O)N[C@@H]1CC[C@H](C(=O)N[C@@H](C)c2ccc(O[C@@H]3CCN(c4ncnc(OCC5CC5)c4F)C3)cc2)C1` [Example 10.1, (1S,3R)-3-acetamido-N—((S)-1-(4-((R)-1-(6-(cyclopropylmethoxy)-5-fluoropyrimidin-4-yl)pyrrolidin-3-yloxy)phenyl)ethyl)cyclopentanecarboxamide] it is 235 nM.
In the case of `CC(=O)N[C@@H](C)c1ccc(O[C@@H]2CCN(c3nc(N4CCC(F)(F)C4)ncc3Cl)C2)cc1` [Example 8.128], 278 nM corresponded to half-maximal inhibition (IC50).
Molecule `CC(=O)N[C@@H](C)c1ccc(O[C@@H]2CCN(c3ncnc(OCC(C)(C)O)c3F)C2)cc1` [Example 7.32] registered an IC50 of 145 nM.
Next, `CCCN(C)c1cc(N2CC[C@@H](Oc3ccc([C@H](C)NC(C)=O)cc3)C2)ncn1` [Example 8.7]: 865 nM.
`CC(=O)N[C@@H](C)c1ccc(O[C@@H]2CCN(c3ncnc(N4CCCC4(C)C)c3F)C2)cc1` [Example 8.250] returned an IC50 of 358 nM. Compared with the last molecule, the IC50 is about 2.4-fold lower.
With `CCN(CC)c1nccc(N2CC[C@@H](Oc3ccc([C@H](C)NC(C)=O)cc3)C2)n1` [Example 8.24], the 50% inhibitory concentration (IC50) was determined as 174 nM.
Turning to `CC(=O)N[C@@H](C)c1ccc(O[C@@H]2CCN(c3ncnc(N(C)C[C@H]4CCCO4)c3F)C2)cc1` [Example 8.148], the IC50 is 198 nM. This IC50 and that of the molecule before are within 1.5-fold of each other.
Consider `CC(=O)N[C@@H](C)c1ccc(O[C@@H]2CCN(c3ncnc(N4CC(F)(F)C4)c3Cl)C2)cc1` [Example 8.111], for which the IC50 came out at 116 nM.
For the molecule `CC(=O)N[C@@H](C)c1ccc(O[C@@H]2CCN(c3nc(N4CCCCC4)ncc3Cl)C2)cc1` [Example 8.127], inhibition was half-maximal at 107 nM (IC50).
Turning to `CC(=O)N[C@@H](C)c1ccc(O[C@@H]2CCN(c3ccnc(N(C)Cc4ccccc4)n3)C2)cc1` [Example 8.23], the IC50 amounted to 185 nM.
Turning to `CC(=O)N[C@@H](C)c1ccc(O[C@@H]2CCN(c3ncnc(N4CCCC4C)c3F)C2)cc1` (stereo partly shown) [Example 8.233], the IC50 was found to be 153 nM.
Next, `COc1c(OCC2CC2)ncnc1N1CC[C@@H](Oc2ccc([C@H](C)NC(=O)C3(C)CC3)cc2)C1` [Example 2.29]: 204 nM; `CCN(C)c1nccc(N2CC[C@@H](Oc3ccc([C@H](C)NC(C)=O)cc3)C2)n1` [Example 8.21]: 190 nM.
Regarding `CC(=O)N[C@@H](C)c1ccc(O[C@@H]2CCN(c3ccnc(N(C)CCc4ccccc4)n3)C2)cc1` [Example 8.22], half-maximal inhibition (IC50) required 986 nM.
For `CC(=O)N[C@@H](C)c1ccc(O[C@@H]2CCN(c3ccnc(N(C)C(C)C)n3)C2)cc1` [Example 8.25], the IC50 amounted to 294 nM.
Next, `C[C@H](NC(=O)c1cnco1)c1ccc(OC2CCN(c3ncnc(OCC4CC4)c3F)C2)cc1` (stereo partly shown) [Example 2.21]: 87 nM.
Molecule `CC(=O)N[C@@H](C)c1ccc(O[C@@H]2CCN(c3ncnc(OCC4(C#N)CC4)c3F)C2)cc1` [Example 7.29] registered an IC50 of 175 nM.
Next, `CCCN(C)c1ccnc(N2CC[C@@H](Oc3ccc([C@H](C)NC(C)=O)cc3)C2)n1` [Example 6.22]: 1350 nM.
Next, `COc1c(N2CC[C@@H](Oc3ccc([C@H](C)NC(C)=O)cc3)C2)ncnc1N1CCC(C)(O)C1` (stereo partly shown) [Example 8.295]: 790 nM.
The figure for `CC(=O)N[C@@H](C)c1ccc(O[C@@H]2CCN(c3nc(N4CCCOCC4)ncc3Cl)C2)cc1` [Example 8.220] is 182 nM; for `CC(=O)N[C@@H](C)c1ccc(O[C@@H]2CCN(c3ncnc(N4CCCCC4)c3F)C2)cc1` [Example 8.138] it is 105 nM.
Turning to `CCOc1ncnc(N2CC[C@@H](Oc3ccc([C@H](C)NC(C)=O)cc3)C2)c1F` [Example 7.26], the IC50 amounted to 148 nM. This IC50 and that of the molecule before are within 1.5-fold of each other.
`CC(=O)N[C@@H](C)c1ccc(O[C@@H]2CCN(c3ccnc(N4CCC(F)(F)CC4)n3)C2)cc1` [Example 8.207]: the IC50 amounted to 99 nM.
Next, `CC(=O)N[C@@H](C)c1ccc(O[C@@H]2CCN(c3ncc(OC[C@H]4CC4(F)F)cn3)C2)cc1` [Example 6.26]: 120 nM; `CC(=O)N[C@@H](C)c1ccc(O[C@@H]2CCN(c3nc(N4C[C@@H]5C[C@H]4CO5)ncc3F)C2)cc1` [Example 8.155]: 613 nM.
Next, `CC(=O)N[C@@H](C)c1ccc(O[C@@H]2CCN(c3nc(N(C)CCC#N)ncc3Cl)C2)cc1` [Example 8.131]: 461 nM; `CC(=O)N[C@@H](C)c1ccc(O[C@@H]2CCN(c3ccnc(N4CCC(C#N)C4)n3)C2)cc1` (stereo partly shown) [Example 8.77]: 489 nM.
For the molecule `CC(=O)N[C@@H](C)c1ccc(O[C@@H]2CCN(c3ccnc(OCC4CC4)n3)C2)cc1` [Example 7.6], inhibition was half-maximal at 1100 nM (IC50). Against the preceding molecule, the IC50 is about 2.2-fold higher.
`C[C@H](NC(=O)Nc1ccon1)c1ccc(OC2CCN(c3ncnc(OCC4CC4)c3F)C2)cc1` (stereo partly shown) [Example 3.13] gave a 50% inhibitory concentration (IC50) of 50 nM.
Next, `CC(=O)N[C@@H](C)c1ccc(O[C@@H]2CCN(c3ncnc(N(C)CCC#N)c3F)C2)cc1` [Example 8.137]: 672 nM.
Turning to `COC(=O)N[C@@H](C)c1ccc(OC2CCN(c3ncnc(OCC(C)(C)O)c3F)C2)cc1` (stereo partly shown) [Example 4.6], it took 222 nM to reach half-maximal inhibition (IC50).
In turn, `CC(=O)N[C@@H](C)c1ccc(O[C@@H]2CCN(c3ncnc(N4CCC5(CC5)C4)c3F)C2)cc1` [Example 8.235] gave an IC50 of 45 nM.
With `CC(=O)N[C@@H](C)c1ccc(O[C@@H]2CCN(c3ccnc(N4CCCCC4)n3)C2)cc1` [Example 8.18], 160 nM corresponded to half-maximal inhibition (IC50).
The figure for `CC(=O)N[C@@H](C)c1ccc(O[C@@H]2CCN(c3ncc(C(C)(C)C)cn3)C2)cc1` [Example 6.24] is 819 nM; for `CC(=O)N[C@@H](C)c1ccc(O[C@@H]2CCN(c3ccnc(N4CCC(C)C4)n3)C2)cc1` (stereo partly shown) [Example 8.17] it is 167 nM.
The figure for `CC(=O)N[C@@H](C)c1ccc(O[C@@H]2CCN(c3nc(NC4(C)CCCC4)ncc3F)C2)cc1` [Example 8.36] is 539 nM; for `CC(=O)N[C@@H](C)c1ccc(O[C@@H]2CCN(c3ccnc(N4CCOCC4)n3)C2)cc1` [Example 8.71] it is 199 nM.
`CC(=O)N[C@@H](C)c1ccc(O[C@@H]2CCN(c3ncnc(N4CCC(C)C4)c3F)C2)cc1` (stereo partly shown) [Example 8.139] showed an IC50 of 49 nM.
